Test results reported in US9771334B2, “Triketone compound and preparation method and use thereof” (SHANDONG CYNDA CHEMICAL CO., LTD., priority 2013, dated 2017).

Tests used:
Assay in all cases: Herbicidal activity, pot culture method (primary and secondary screening test)
Format in all cases: in vivo
Conditions in all cases: primary screening, pot culture, 150 g/ha, sprayed at 3-leaf stage, result 15 days later
setaria viridis = tested on: setaria viridis
Excerpt: (§1) This test example is for describing the herbicidal activity inhibition ratio (%) (the dose is 150 g/ha) of the compound with a structure shown in Formula (I). Primary screening test (pot culture method): The test targets are abutilon theophrasti, digitaria sanguinalis, amaranthus retroflexus, echinochloa crusgalli, eclipta prostrata and setaria viridis. Take flowerpots with an inner diameter of 6 cm, put composite soil (vegetable garden soil:seedling matrix=1:2, v/v) into them till 3⁄4 of flowerpot height, directly sow the above six weed targets (budding rate>85%), cover them with 0.2 cm thick soil, and keep them for future use when the weeds grow to 3-leaf stage. Each compound is dissolved in N,N-dimethylformamide at a dose of 150 g/ha and diluted with distilled water into a 0.2 g/L solution. The solution is sprayed through an automatic spray tower. After the solution on weed leaves is aired dry, the flowerpots are moved into a greenhouse for cultivation. The result is investigated 15 days later. By the same method adopted in primary screening test, a secondary screening test is done on some typical compounds, such as: 5, 6, 20, 21, 23, 34, 47, 65, 66, 70 and 91 at a reduced dose, and the test result is compared with mesotrione which is commercially available and has a good herbicidal effect. The test method is same as that adopted in primary screening test. Mesotrione is bought from Hubei […] Chemical Co., Ltd.

amaranthus retroflexus = tested on: amaranthus retroflexus
Excerpt: as §1

abutilon theophrasti = tested on: abutilon theophrasti
Excerpt: as §1

digitaria sanguinalis = tested on: digitaria sanguinalis
Excerpt: as §1

echinochloa crusgalli = tested on: echinochloa crusgalli
Excerpt: as §1

eclipta prostrata = tested on: eclipta prostrata
Excerpt: as §1

Structure (SMILES)	herbicidal activity inhibition ratio (%), Setaria viridis (setaria viridis) [%]	herbicidal activity inhibition ratio (%), Amaranthus retroflexus (amaranthus retroflexus) [%]	herbicidal activity inhibition ratio (%), Abutilon theophrasti (abutilon theophrasti) [%]	herbicidal activity inhibition ratio (%), Digitaria sanguinalis (digitaria sanguinalis) [%]	herbicidal activity inhibition ratio (%), Echinochloa crusgalli (echinochloa crusgalli) [%]	herbicidal activity inhibition ratio (%), Eclipta prostrata (eclipta prostrata) [%]
Cn1c(=O)n(-c2ccccc2Br)c(=O)c2cc(C(=O)C3=C(O)CCCC3=O)ccc21 [Compound 27]	60	100	83	90	90	80
Cn1c(=O)n(-c2ccccc2Br)c(=O)c2cc(C(=O)C3=C(O)CC(C)(C)CC3=O)ccc21 [Compound 28]	35	95	100	95	85	83
COc1ccccc1-n1c(=O)c2cc(C(=O)C3=C(O)CCCC3=O)ccc2n(C)c1=O [Compound 29]	60	100	90	88	90	65
Cn1c(=O)n(-c2ccc(C(F)(F)F)cc2)c(=O)c2cc(C(=O)C3=C(O)CCCC3=O)ccc21 [Compound 30]	30	100	100	60	85	60
Cn1c(=O)n(-c2ccc(C(F)(F)F)cc2)c(=O)c2cc(C(=O)C3=C(O)CC(C)(C)CC3=O)ccc21 [Compound 31]	10	80	60	60	40	55
Cn1c(=O)n(-c2c(Cl)cccc2Cl)c(=O)c2cc(C(=O)C3=C(O)CCCC3=O)ccc21 [Compound 32]	40	85	80	80	80	50
Cc1ccc(Cl)cc1-n1c(=O)c2cc(C(=O)C3=C(O)CCCC3=O)ccc2n(C)c1=O [Compound 33]	60	90	85	80	85	83
Cn1c(=O)n(-c2ccccc2)c(=O)c2cc(C(=O)C3=C(O)CCCC3=O)ccc21 [Compound 35]	50	100	80	65	65	70
CC(C)c1ccc(-n2c(=O)c3cc(C(=O)C4=C(O)CCCC4=O)ccc3n(C)c2=O)cc1 [Compound 36]	50	35	50	100	25	0
Cc1ccc(Cl)cc1-n1c(=O)c2cc(C(=O)C3=C(O)CC(C)(C)CC3=O)ccc2n(C)c1=O [Compound 37]	40	95	65	83	80	80
Cn1c(=O)n(-c2ccccc2C(F)(F)F)c(=O)c2cc(C(=O)C3=C(O)CCCC3=O)ccc21 [Compound 38]	80	100	90	85	90	75
Cn1c(=O)n(-c2ccccc2OC(F)(F)F)c(=O)c2cc(C(=O)C3=C(O)CCCC3=O)ccc21 [Compound 39]	80	98	95	85	70	85
Cn1c(=O)n(-c2ccccc2)c(=O)c2cc(C(=O)C3=C(O)CC(C)(C)CC3=O)ccc21 [Compound 40]	45	95	100	85	78	80
Cn1c(=O)n(-c2ccccc2C(F)(F)F)c(=O)c2cc(C(=O)C3=C(O)CC(C)(C)CC3=O)ccc21 [Compound 41]	25	95	100	85	73	80
CC1CC(=O)C(C(=O)c2ccc3c(c2)c(=O)n(-c2ccccc2)c(=O)n3C)=C(O)C1 (stereo not drawn) [Compound 42]	60	100	98	93	88	83
CCn1c(=O)n(-c2ccc(Cl)cc2)c(=O)c2cc(C(=O)C3=C(O)CCCC3=O)ccc21 [Compound 43]	50	98	65	60	80	83
Cn1c(=O)n(-c2cccc3ccccc23)c(=O)c2cc(C(=O)C3=C(O)CCCC3=O)ccc21 [Compound 44]	60	100	85	75	65	0
Cn1c(=O)n(-c2ccc([N+](=O)[O-])cc2)c(=O)c2cc(C(=O)C3=C(O)CCCC3=O)ccc21 [Compound 45]	10	90	60	40	50	83
CC(C)c1cccc(C(C)C)c1-n1c(=O)c2cc(C(=O)C3=C(O)CCCC3=O)ccc2n(C)c1=O [Compound 46]	20	100	35	55	60	70
COc1ccccc1-n1c(=O)c2cc(C(=O)C3=C(O)CC(C)(C)CC3=O)ccc2n(C)c1=O [Compound 48]	50	95	50	85	85	85
Cn1c(=O)n(-c2ccc(OC(F)(F)F)cc2)c(=O)c2cc(C(=O)C3=C(O)CC(C)(C)CC3=O)ccc21 [Compound 49]	50	95	100	90	65	80
